From paper PMC10531759, “Key Amino Acid Residues Involved in Binding Interactions between Bactrocera minax Odorant-Binding Protein 3 (BminOBP3) and Undecanol” (Insects, 2023)
Changes are numbered by the printed parent chain. “Also recorded” adds a separate entry of the source.

Key:
[1] = target: T1, BminOBP3 (wild-type protein) (Bactrocera minax, UniProt A0A3G2LEF2); design: method as in PMID 34668560; settings: competitive fluorescence binding experiments of previous study; cited from earlier work
T1 sequence (A0A3G2LEF2 27-115): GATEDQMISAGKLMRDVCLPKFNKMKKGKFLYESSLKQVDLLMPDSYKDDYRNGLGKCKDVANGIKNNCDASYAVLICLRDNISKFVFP

[2] = target: T2, T-OBP3 (mutant that lacks I116-P122 from the C-terminus of BminOBP3) (Bactrocera minax, UniProt A0A3G2LEF2); assay: Fluorescence competitive binding assay (1-NPN displacement by undecanol), C-terminus truncated mutant; settings: compared with wild-type protein
T2 sequence (A0A3G2LEF2 27-108): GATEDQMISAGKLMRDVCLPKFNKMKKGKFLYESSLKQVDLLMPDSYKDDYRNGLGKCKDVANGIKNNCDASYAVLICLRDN
Protocol: (§1) In order to explore the binding affinities of BminOBP3 and its mutants to undecanol, the binding assays were conducted on a fluorescence spectrophotometer (F-7000; Hitachi, Japan) with parameters set same as the previous study. The fluorescent probe 1-NPN and undecanol were diluted in the HPLC methanol to 1 mM, whereas the protein samples were dissolved in 20 mM Tris-HCL pH 7.4 to obtain 2 μM protein solutions.
(§2) To measure the dissociation constant (Kd) of 1-NPN to BminOBP3 and mutants, aliquots of 1 mM 1-NPN were added to the 2 μM protein solution with a final concentration of 1-NPN ranging from 0 to 22 μM, and the resulting fluorescence intensity values of the maximum fluorescence emission were recorded for the construction of binding curves and Scatchard plots. Bound 1-NPN was determined by fluorescence intensities with the assumption that the protein was 100% active, and it binds the ligands at a 1:1 stoichiometric ratio when saturated. […] The maximal fluorescence intensity values were plotted against undecanol concentrations. The inhibition constant (Ki) of each protein was calculated based on the following equation: Ki = [IC50]/(1 + [1-NPN]/K1-NPN). IC50 is the concentration of ligand halving initial fluorescence intensity; [1-NPN] is the free concentration of 1-NPN; and K1-NPN is the dissociation constant of the protein/1-NPN complex. […]

[3] = target: T3, 3D2a (mutant that lacks F121 and P122 from the C-terminus of BminOBP3) (Bactrocera minax, UniProt A0A3G2LEF2); assay: Fluorescence competitive binding assay (1-NPN displacement by undecanol), 3D2a mutant; settings: undecanol up to 36 μM
T3 sequence (A0A3G2LEF2 27-113): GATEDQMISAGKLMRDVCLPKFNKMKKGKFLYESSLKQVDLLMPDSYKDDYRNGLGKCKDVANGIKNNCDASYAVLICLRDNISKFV
Protocol: as §1, §2

[4] = test system: T57A (BminOBP3-T57A mutant); assay: Fluorescence binding assay with undecanol, T57A mutant; design: species or system Bactrocera minax; settings: Figure S7 and Table S2
Protocol: as §1
as §2, with “[1-NPN]/K1-NPN).” for “[1-NPN]/K1-NPN). IC50 is the concentration of ligand halving initial fluorescence intensity; [1-NPN] is the free concentration of 1-NPN; and K1-NPN is the dissociation constant of the protein/1-NPN complex.”
(§3) (the information regarding 13 ligands see Supplemental Data Table S4). […] Conformation 3 was an effective conformation, which is shown in Figure 2A, as it was validated by subsequent mutagenesis studies and fluorescence binding assays. […]

[5] = target: T4, V120A (BminOBP3-V120A mutant) (Bactrocera minax, UniProt A0A3G2LEF2, V113A); assay: Fluorescence competitive binding assay (1-NPN displacement by undecanol), V120A mutant; settings: undecanol up to 36 μM
T4 sequence (A0A3G2LEF2 27-115 V113A): T1 sequence (A0A3G2LEF2 27-115) with V87A
Protocol: as §1, §2

[6] = target: T1, BminOBP3 (wild-type protein); assay: Fluorescence competitive binding assay (1-NPN displacement by undecanol), wild-type protein; settings: pH 5.0 compared with pH 7.4; Figure S8 and Table S3
Protocol: as §1, §2

[7] = test system: Y84A (BminOBP3-Y84A mutant); assay: Fluorescence binding assay with undecanol, Y84A mutant; design: species or system Bactrocera minax; settings: Figure S7 and Table S2
Protocol: as §1
as §2, with “[1-NPN]/K1-NPN).” for “[1-NPN]/K1-NPN). IC50 is the concentration of ligand halving initial fluorescence intensity; [1-NPN] is the free concentration of 1-NPN; and K1-NPN is the dissociation constant of the protein/1-NPN complex.”
as §3

CCCCCCCCCCCO [undecanol, 1-undecanol]
binding affinity of BminOBP3 among 13 ligands tested (in words) [1]: strong binding affinity | affinity for undecanol compared with BminOBP3 (in words) [2]: significant decrease | binding to undecanol (in words) [3]: completely abolished; also recorded: completely lost their binding capacity | affinity to undecanol compared with the wild-type protein (in words) [4]: obvious increase | binding to undecanol (in words) [5]: completely abolished; also recorded: completely lost their binding capacity | affinity between BminOBP3 and undecanol at acidic pH (in words) [6]: significant decrease | affinity to undecanol compared with the wild-type protein (in words) [7]: obvious increase
